28 molecules from US20250042857A1, “SOS1 Inhibitor With Pyrido-Fused Six-Membered Ring Structure” (HAIHE BIOPHARMA CO., LTD., priority 2021, published 2025) can be followed below.

The target of test [1] is KRAS-G12C/SOS1 (Homo sapiens (Human), UniProt Q07889). The test is described as follows: Detection of inhibitory effects of compounds on KRAS-G12C/SOS1 (KRASG12C/SOS binding kit, HTRF). The settings on record: Em665/620, read-out: IC50, inhibitory activity on interaction of KRAS-G12C/SOS1. An excerpt: Experimental objective: The inhibitory effects of the tested compounds on KRAS-G12C/SOS1 were detected. IC50 was used to characterize the inhibitory ability of the compounds on the KRAS-G12C/SOS1. The lower IC50 value indicated the stronger inhibitory ability. BI-3406 was used as a positive control compound.
Experimental reagents: KRASG12C/SOS binding kit (Cisbio, cat. 63ADK000CB16PEG); DMSO (Sigma, cat. D8418-1L); and 384-well white plate (PerkinElmer, cat. 6007290)
• 1. Preparation of compounds: the test compounds were dissolved in 100% DMSO to obtain 10 mM stock solutions and the stock solutions were stored in a refrigerator in the dark. • 2. Kinase reaction process:
Preparation of compounds: the test compounds had the concentration of 5,000 nM and diluted in a 384-well plate into a 100% DMSO solution at the 200-fold final concentration, and the compounds were diluted 3-fold with 10 concentrations. 50 nL of the compounds at the 200-fold final concentration were transferred to the plate of interest, the 384-well plate, using a dispenser Echo 550. 50 nL of 100% DMSO was added to each negative control well and positive control well.
A Tag1-SOS1 solution at the 4-fold final concentration was prepared using a diluent buffer.
2.5 μL of the Tag1-SOS1 solution at the 4-fold final concentration was added to the 384-well plate.
A Tag2-KRAS-G12C solution at the 4-fold final concentration was prepared using the diluent buffer.
2.5 μL of the Tag2-KRAS-G12C solution at the 4-fold final concentration was respectively added into compound wells and the positive control wells; and 2.5 μL of the diluent buffer was added to the negative control wells.
The 384-well plate was centrifuged at 1,000 rpm for 30 seconds, shaken and mixed uniformly, and incubated at room temperature for 15 minutes.
An Anti-Tag1-TB3+ solution at the 1-fold final concentration and an Anti-Tag2-XL665 solution at the 1-fold final concentration were prepared using a detection buffer, the two solutions were mixed uniformly to obtain a Mix solution, and 5 μL of the Mix solution was added into each well.
The 384-well plate was centrifuged at 1,000 rpm for 30 seconds, shaken and mixed uniformly, and incubated at 4° C. for 120 minutes.
Em665/620 was read using an Envision microplate reader.
Inhibition %=(Max signal−Compound signal)/(Max signal−Min signal)×100 Calculation formula • wherein the Min signal was the mean value of the negative control wells, and the Max signal was the mean value of the positive control wells.
A dose-response curve was fitted using the log value of the concentration as an X axis and the percentage of the inhibitory rate as a Y axis by using the log(inhibitor) vs. response-variable slope of an analytical software GraphPadPrism5, thereby obtaining the IC50 value of each compound on an enzyme activity.

For test [2], the system named is p-ERK of PC-9 cells. The test is described as follows: p-ERK HTRF assay in PC-9 cells. The test is classed as cell-based. The settings on record: Homo sapiens, PC-9, 1 h, PC-9 lung cancer cells, 1 hour treatment, read-out: IC50, inhibitory activity on p-ERK of PC-9 cells. Here is the method:
IC50 Values of Compounds Determined by p-ERK HTRF Assay in PC-9 Cells
Experimental objective: an inhibitory effect of the test compounds on the phosphorylation of PC-9ERK of lung cancer cells at a cellular level was evaluated by detecting the phosphorylation of ERK.
• PRMI 1640 medium (Invitrogen-11875093) • 0.25% pancreatin (Invitrogen-25200056) • Phosphoric acid buffer salt solution (PBS, pH 7.4) (Invitrogen-10010023) • Double-antibody (PS) (Invitrogen-15140122) • Fetal bovine serum (FBS) (Gibco-10091148) • Trypan blue (Gibco-15250061) • 10-cm culture dish (Corning-430167) • 10-mL pipette (Costar-4488) • Pipettor (Sartorius-17009031) • 15-mL centrifuge tube (Corning-430052) • 50-mL centrifuge tube (Corning-430829) • Cryotube (Thermo-377267) • 1.5-mL EP tube (Axygen-MCT-150-C-S) • Cell incubator (Thermo-371) • Microscope (Olympus-CKX41) • Centrifuge (Flying Pigeon-TDL-80-2B) • Cell counter (Countstar-IC-1000) • Envision (Perkin Elmer) • Spark 10M (TECAN) • Phospho-ERK1/2 (Thr202/Tyr204) Experimental kit (Cisbio, Cat. No. 64AERPEG) • PC-9 cells: RPMI1640+10% FBS+1% PS
• 1) PBS, 0.25% pancreatin, and a cell culture medium were placed in a water-bath kettle at 37° C. for preheating; • 2) cells were observed under a microscope, a fusion degree was evaluated, and no bacterial and fungi pollution was confirmed; • 3) a culture solution was removed, the cells were washed with 5 mL of PBS and digested with 2 mL of the 0.25% trypsin, the digestion was terminated with 10 mL of the fresh cell culture medium, a culture dish was rinsed, and the cells were transferred to a 15-mL centrifuge tube; • 4) the collected cells were centrifuged at 1,000 rpm for 5 minutes; • 5) after the centrifugation, the supernatant was discarded, the cells were resuspended in 5 mL of the cell culture medium, 20 μL of the resuspended cells were aspirated, and the number and viability of viable cells were recorded; • 6) the cell culture medium was used and the cell density was adjusted (PC-9:10,000 cells/well, and 45 μL per well); • 7) in a 384-well plate, 45 μL of a cell suspension per well was transferred according to an experimental design figure; and • 8) the cells were incubated overnight at 37° C. and 5% CO2.
• 1) The compounds were diluted from the stock concentration to 10 mM with 100% DMSO (Trametinib was diluted to 1 mM), then 3-fold diluted into 10 points (5 μL of the diluted compounds with the concentration of 10 mM were transferred to 10 μL of the DMSO in an LDV plate), and centrifuged at 1,000 rpm/min for 1 minute; • 2) 5 μL of the diluted compounds of step 1) were transferred to an inter plate 1 containing 45 μL of the cell culture medium (the compounds were diluted from 1,000× to 100×); • 3) 5 μL of the diluted compounds of step 2) were transferred to an inter plate 2 containing 45 μL of the cell culture medium (the compounds were diluted from 100× to 10×); • 4) 5 μL of the compounds were pipetted from the inter plate 2 into a cell culture plate (the compounds were diluted from 10 folds to 1 fold), the final concentrations of the test compounds were 10,000 nM, 3333.33 nM, 1111.11 nM, 370.37 nM, 123.46 nM, 41.15 nM, 13.72 nM, 4.57 nM, 1.52 nM, and […], the solution was centrifuged at 1,000 rpm/min for 1 minute, and the final content of the DMSO was 0.1%; and • 5) the cells were treated in an incubator at 37° C. for 1 hour. […]
(In general: Time-resolved FRET reads energy transfer from a long-lived donor to a nearby acceptor.)

Sequence of KRAS-G12C/SOS1 (Q07889 whole entry, stated change not applied): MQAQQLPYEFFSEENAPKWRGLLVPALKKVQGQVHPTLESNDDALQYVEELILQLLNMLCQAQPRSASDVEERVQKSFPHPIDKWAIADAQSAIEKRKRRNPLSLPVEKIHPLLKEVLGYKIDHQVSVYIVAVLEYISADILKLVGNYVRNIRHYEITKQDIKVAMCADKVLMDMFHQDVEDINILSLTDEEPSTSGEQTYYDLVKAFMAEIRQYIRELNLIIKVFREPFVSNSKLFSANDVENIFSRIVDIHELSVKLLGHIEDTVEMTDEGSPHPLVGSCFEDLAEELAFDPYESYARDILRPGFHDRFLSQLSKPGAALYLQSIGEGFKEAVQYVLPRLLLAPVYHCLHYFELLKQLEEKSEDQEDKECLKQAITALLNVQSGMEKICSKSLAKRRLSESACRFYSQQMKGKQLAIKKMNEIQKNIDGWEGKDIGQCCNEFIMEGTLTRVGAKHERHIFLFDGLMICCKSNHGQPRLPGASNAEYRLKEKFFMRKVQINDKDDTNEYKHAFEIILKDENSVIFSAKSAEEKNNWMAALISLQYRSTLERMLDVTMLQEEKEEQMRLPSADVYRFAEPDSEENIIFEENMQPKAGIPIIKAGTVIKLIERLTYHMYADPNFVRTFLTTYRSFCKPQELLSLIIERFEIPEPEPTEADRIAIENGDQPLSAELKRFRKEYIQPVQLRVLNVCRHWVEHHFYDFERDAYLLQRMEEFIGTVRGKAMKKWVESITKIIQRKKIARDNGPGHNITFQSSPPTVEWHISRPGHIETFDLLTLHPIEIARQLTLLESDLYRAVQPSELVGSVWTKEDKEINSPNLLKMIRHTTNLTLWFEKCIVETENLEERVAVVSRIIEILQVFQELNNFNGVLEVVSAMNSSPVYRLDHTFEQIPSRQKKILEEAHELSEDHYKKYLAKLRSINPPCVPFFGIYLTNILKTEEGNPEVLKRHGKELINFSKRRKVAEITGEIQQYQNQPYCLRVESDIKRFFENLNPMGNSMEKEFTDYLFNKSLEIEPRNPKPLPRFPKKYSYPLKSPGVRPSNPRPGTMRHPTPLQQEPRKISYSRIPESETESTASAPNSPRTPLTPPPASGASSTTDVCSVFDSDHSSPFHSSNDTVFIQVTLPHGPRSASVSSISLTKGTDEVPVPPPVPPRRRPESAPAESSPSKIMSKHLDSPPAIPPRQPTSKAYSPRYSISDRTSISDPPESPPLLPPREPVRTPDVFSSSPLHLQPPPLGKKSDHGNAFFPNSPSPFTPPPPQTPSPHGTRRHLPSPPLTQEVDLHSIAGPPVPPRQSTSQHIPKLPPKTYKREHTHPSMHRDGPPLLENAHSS

Take `C[C@@H](Nc1ccnc2cnc(-c3ccn(C)c(=O)c3)cc12)c1cccc(C(F)F)c1F` [Compound B-108]: the figures for the IC50 in test [1] and in test [2] were not above 100 nM and not above 300 nM, respectively.
For `C[C@@H](Nc1ccnc2cnc(C3(O)CCN(C(=O)C[C@@H]4CCOC4)CC3)cc12)c1cccc(C(F)F)c1F` [Compound B-140], in that order: not above 100 nM and not above 300 nM.
For `C[C@H](O)C(=O)N1CCC(O)(c2cc3c(N[C@H](C)c4cccc(C(C)(F)F)c4F)ccnc3cn2)CC1` [Compound B-125], in that order: not above 100 nM and not above 300 nM.
For `C[C@@H](Nc1ccnc2cnc(N3CCC(O)(CN)CC3)cc12)c1cccc(C(F)F)c1F` [Compound B-75], in that order: not above 100 nM and 300 to 1000 nM.
Turning to `C[C@@H](Nc1ccnc2cnc(C3(O)CCN(C4COCC4O)CC3)cc12)c1cccc(C(F)F)c1F` (some centres unmarked) [Compound B-152], the IC50 was not above 100 nM in test [1] and 300 to 1000 nM in test [2].
In the same order, the values of `C[C@H](O)C(=O)N1CCC(O)(c2cc3c(N[C@H](C)c4cccc(C(F)F)c4F)ccnc3cn2)CC1` [Compound B-119] are not above 100 nM and not above 300 nM.
Regarding `C[C@@H](Nc1ccnc2cnc(C3(O)CCN(C(=O)N(C)C)CC3)cc12)c1cccc(C(F)F)c1F` [Compound B-160], the IC50 was not above 100 nM in test [1] and not above 300 nM in test [2].
For `CC(=O)N1C2CCC1CC(c1cc3c(N[C@H](C)c4cccc(C(F)F)c4F)ccnc3c(C)n1)C2` (some centres unmarked) [Compound B-67], in that order: not above 100 nM and 300 to 1000 nM.
For `CNC(=O)C1CCN(c2cc3c(N[C@H](C)c4cccc(C(F)F)c4F)ccnc3cn2)CC1` [Compound B-36], in that order: not above 100 nM and not above 300 nM.
As for `Cc1cc(N[C@H](C)c2cccc(C(F)F)c2F)c2cc(N3CCCS3(=O)=O)ncc2n1` [Compound B-72], the IC50 in test [1] is not above 100 nM; in test [2], 300 to 1000 nM.
In the case of `COc1nc(N2CCN(C(C)=O)CC2)cc2c(N[C@H](C)c3cccc(C(F)F)c3F)ccnc12` [Compound B-73], the IC50 in test [1] was not above 100 nM; in test [2], not above 300 nM.
In the same order, the values of `CC(=O)N1CCN(c2cc3c(N[C@H](C)c4cccc(C(F)F)c4F)ccnc3cn2)CC1` [Compound B-23] are not above 100 nM and not above 300 nM.
In the same order, the values of `CNCC(=O)N1CCC(O)(c2cc3c(N[C@H](C)c4cccc(C(F)F)c4F)ccnc3cn2)CC1` [Compound B-122] are not above 100 nM and more than 1000 nM.
Turning to `C[C@@H](Nc1ccnc2cnc(C3(O)CCN(C(=O)[C@H]4C[C@H](O)CN4)CC3)cc12)c1cccc(C(F)F)c1F` [Compound B-144], the results for the IC50 in test [1] and in test [2] were not above 100 nM and more than 1000 nM, respectively.
In the same order, the values of `C[C@@H](Nc1ccnc2c(-c3cnn(C)c3)nc(C3(O)CCN(C(=O)CO)CC3)cc12)c1cccc(C(F)F)c1F` [Compound B-171] are not above 100 nM and not above 300 nM.
In the same order, the values of `CC(=O)N1CCN(c2cc3c(N[C@H](C)c4cccc(C(F)F)c4F)ccnc3cn2)[C@@H](CC#N)C1` [Compound B-56] are not above 100 nM and not above 300 nM.
For the molecule `C[C@@H]1OCC2(CCN(c3cc4c(N[C@H](C)c5cccc(C(F)F)c5F)ccnc4cn3)CC2)[C@@H]1N` [Compound B-79], the IC50 in test [1] was not above 100 nM; in test [2], not above 300 nM.
For the molecule `C[C@@H](Nc1ccnc2cnc(C3(O)CCN(C(=O)C4(C#N)CC4)CC3)cc12)c1cccc(C(F)F)c1F` [Compound B-127], the IC50 in test [1] was not above 100 nM; in test [2] it was not above 300 nM.
In the same order, the values of `Cc1nc(N2CCCCS2(=O)=O)cc2c(N[C@H](C)c3cccc(C(F)F)c3F)ccnc12` [Compound B-65] are not above 100 nM and 300 to 1000 nM.
In the same order, the values of `CC(=O)N1CCC(O)(c2cc3c(N[C@H](C)c4cccc(C(F)(F)F)c4F)ccnc3cn2)CC1` [Compound B-112] are not above 100 nM and not above 300 nM.
For `C[C@H](O)C(=O)N1CCC(O)(c2cc3c(N[C@H](C)c4cccc(C(F)F)c4F)ccnc3c(-c3cnn(C)c3)n2)CC1` [Compound B-172], in that order: 100 to 500 nM and 300 to 1000 nM.
Take `COc1nc(C2(O)CCN(C(=O)CO)CC2)cc2c(N[C@H](C)c3cccc(C(F)F)c3F)ccnc12` [Compound B-173]: the IC50 in test [1] is not above 100 nM; in test [2], not above 300 nM.
In the same order, the values of `CC(=O)N1CCC(O)(c2cc3c(N[C@H](C)c4cccc(C(F)F)c4F)ccnc3c(C)n2)CC1` [Compound B-68] are not above 100 nM and more than 1000 nM.
`CC(=O)N1CCN(c2cc3c(N[C@H](C)c4cccc(C(F)F)c4F)c(F)cnc3cn2)CC1` [Compound B-111]: the IC50 in test [1] is not above 100 nM; in test [2], not above 300 nM.
For `C[C@@H](Nc1ccnc2cnc(C3(O)CCN(C(=O)CC#N)CC3)cc12)c1cccc(C(F)F)c1F` [Compound B-116], in that order: not above 100 nM and not above 300 nM.
For `Cc1nc(C2(O)CCC(O)CC2)cc2c(N[C@H](C)c3cccc(C(F)F)c3F)ccnc12` (some centres unmarked) [Compound B-70], in that order: not above 100 nM and 300 to 1000 nM.
In the same order, the values of `COC[C@@H]1CN(C(C)=O)CCN1c1cc2c(N[C@H](C)c3cccc(C(F)F)c3F)ccnc2cn1` [Compound B-48] are not above 100 nM and not above 300 nM.
On to `C[C@@H](Nc1ccnc2cnc(N3CCC(O)CC3=O)cc12)c1cccc(C(F)F)c1F` (some centres unmarked) [Compound B-54], for which the IC50 was not above 100 nM in test [1] and 300 to 1000 nM in test [2].
